From patent US20240109918A1, “HETEROCYCLIC COMPOUNDS AND USES THEREOF” (Kumquat Biosciences Inc., priority 2022, published 2024)

Experiments:
KRASG12D = target: T1, KRASG12D (Homo sapiens, UniProt P01116, G12D); assay: Bio-Biochem-PPI-HTRF Ras-SOS1 interaction assay (KRAS G12D); assay type: biochemical; settings: 5 nM
T1 construct: made in house; host or cells: E. coli BL21 (DE3)
How it was run: (§1)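 Compounds tested in duplicate (10 μM to 0.01 μM) for disruption of His-hSOS1 binding to GST-tagged wild-type or G12D K-Ras in HEPES pH 7.4 buffer. TR-FRET read (Eu donor, XL665 acceptor) after about 10 min or longer; IC50 derived from the 665/620 nm emission ratio.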

KRASwt = target: T2, KRASwt (Homo sapiens, UniProt P01116); assay: Bio-Biochem-PPI-HTRF Ras-SOS1 interaction assay (KRAS wt); assay type: biochemical; settings: 5 nM
T2 construct: made in house; host or cells: E. coli BL21 (DE3)
T2 sequence (P01116 1-188 isoform P01116-2): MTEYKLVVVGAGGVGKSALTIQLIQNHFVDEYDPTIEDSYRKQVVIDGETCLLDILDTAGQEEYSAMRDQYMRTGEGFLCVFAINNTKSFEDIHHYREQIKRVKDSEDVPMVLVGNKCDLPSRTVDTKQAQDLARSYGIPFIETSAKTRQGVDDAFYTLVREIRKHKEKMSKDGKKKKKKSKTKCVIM
How it was run: as §1

T1 sequence (P01116 1-188 isoform P01116-2 G12D): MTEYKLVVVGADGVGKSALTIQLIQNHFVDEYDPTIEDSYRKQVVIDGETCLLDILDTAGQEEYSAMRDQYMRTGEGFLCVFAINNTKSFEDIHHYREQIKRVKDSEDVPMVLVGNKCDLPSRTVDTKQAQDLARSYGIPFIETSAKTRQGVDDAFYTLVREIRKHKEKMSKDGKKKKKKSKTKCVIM

| IC50 (KRASG12D) | IC50 (KRASwt) | SMILES |
| --- | --- | --- |
| < 5 µM | < 5 µM | C[C@H](Oc1nc(N2CCCC3(CN(C(=O)C(F)(F)F)C3)C2)c2cc(Cl)c(-c3ccc(F)c4sc(N)c(C#N)c34)c(F)c2n1)[C@@H]1CCCN1C [compound 123, 2-amino-4-(6-chloro-8-fluoro-2-((S)-1-((S)-1-methylpyrrolidin-2-yl)ethoxy)-4-(2-(2,2,2-trifluoroacetyl)-2,6-diazaspiro[3.5]nonan-6-yl)quinazolin-7-yl)-7-fluorobenzo[b]thiophene-3-carbonitrile] |
| < 5 µM | < 5 µM | C#Cc1c(F)ccc2cc(O)cc(-c3ccc4c(N5CCCCC6(CN(C(=O)[C@H]7CC7(F)F)C6)C5)nc(OC[C@@]56CCCN5C[C@H](F)C6)nc4c3F)c12 [compound 305, ((R)-2,2-difluorocyclopropyl) (6-(7-(8-ethynyl-7-fluoro-3-hydroxynaphthalen-1-yl)-8-fluoro-2-(((2R,7aS)-2-fluorotetrahydro-1H-pyrrolizin-7a(5H)-yl)methoxy)quinazolin-4-yl)-2,6-diazaspiro[3.6]decan-2-yl)methanone] |
| < 5 µM | < 5 µM | C#Cc1c(F)ccc2cc(O)cc(-c3ccc4c(N5CCCCC6(CN(C(=O)[C@@H]7CC7(F)F)C6)C5)nc(OC[C@@]56CCCN5C[C@H](F)C6)nc4c3F)c12 [compound 260, ((S)-2,2-difluorocyclopropyl) (6-(7-(8-ethynyl-7-fluoro-3-hydroxynaphthalen-1-yl)-8-fluoro-2-(((2R,7aS)-2-fluorotetrahydro-1H-pyrrolizin-7a(5H)-yl)methoxy)quinazolin-4-yl)-2,6-diazaspiro[3.6]decan-2-yl)methanone] |
| < 5 µM | < 5 µM | N#Cc1c(N)sc2c(F)ccc(-c3c(Cl)cc4c(N5CCOC6(CN(C(=O)C7(C(F)F)COC7)C6)C5)nc(OC[C@@]56CCCN5C[C@H](F)C6)nc4c3F)c12 [compound 252, 2-amino-4-(6-chloro-4-(2-(3-(difluoromethyl)oxetane-3-carbonyl)-5-oxa-2,8-diazaspiro[3.5]nonan-8-yl)-8-fluoro-2-(((2R,7aS)-2-fluorotetrahydro-1H-pyrrolizin-7a(5H)-yl)methoxy)quinazolin-7-yl)-7-fluorobenzo[b]thiophene-3-carbonitrile] |
| < 5 µM | < 5 µM | Nc1nc2c(-c3c(Cl)cc4c(N5CCOC6(CCNC6)C5)nc(OCC56CCCN5C[C@H](F)C6)nc4c3F)ccc(F)c2s1 (stereo partly drawn) [compound 150, 4-(6-chloro-8-fluoro-2-(((2R)-2-fluorotetrahydro-1H-pyrrolizin-7a(5H)-yl)methoxy)-4-(6-oxa-2,9-diazaspiro[4.5]decan-9-yl)quinazolin-7-yl)-7-fluorobenzo[d]thiazol-2-amine] |
| < 5 µM | < 5 µM | N#Cc1c(N)sc2c(F)ccc(-c3c(Cl)cc4c(N5CCCCC6(CN(C(=O)N7CC(C#N)C7)C6)C5)nc(OC[C@@]56CCCN5C[C@H](F)C6)nc4c3F)c12 [compound 274, 1-(6-(7-(2-amino-3-cyano-7-fluorobenzo[b]thiophen-4-yl)-6-chloro-8-fluoro-2-(((2R,7aS)-2-fluorotetrahydro-1H-pyrrolizin-7a(5H)-yl)methoxy)quinazolin-4-yl)-2,6-diazaspiro[3.6]decane-2-carbonyl)azetidine-3-carbonitrile] |
| < 5 µM | < 5 µM | N#Cc1c(N)sc2c(F)ccc(-c3c(Cl)cc4c(N5CCOC6(CN(C#N)C6)C5)nc(OC[C@@]56CCCN5C[C@H](F)C6)nc4c3F)c12 [compound 190, 8-(7-(2-amino-3-cyano-7-fluorobenzo[b]thiophen-4-yl)-6-chloro-8-fluoro-2-(((2R,7aS)-2-fluorotetrahydro-1H-pyrrolizin-7a(5H)-yl)methoxy)quinazolin-4-yl)-5-oxa-2,8-diazaspiro[3.5]nonane-2-carbonitrile] |
| < 5 µM | < 5 µM | N#Cc1c(N)sc2c(F)ccc(-c3c(Cl)cc4c(N5CCCCC6(CN(C(=O)[C@H]7CCOC7)C6)C5)nc(OC[C@@]56CCCN5C[C@H](F)C6)nc4c3F)c12 [compound 319, 2-amino-4-(6-chloro-8-fluoro-2-(((2R,7aS)-2-fluorotetrahydro-1H-pyrrolizin-7a(5H)-yl)methoxy)-4-(2-((S)-tetrahydrofuran-3-carbonyl)-2,6-diazaspiro[3.6]decan-6-yl)quinazolin-7-yl)-7-fluorobenzo[b]thiophene-3-carbonitrile] |
| < 5 µM | < 5 µM | N#CCC1CCN(c2nc(OC[C@@]34CCCN3C[C@H](F)C4)nc3c(F)c(-c4ccc(F)c5sc(N)c(C#N)c45)c(Cl)cc23)CC2(C1)CN(C(=O)C1CC1(F)F)C2 (stereo partly drawn) [compound 324, 2-amino-4-(6-chloro-4-(9-(cyanomethyl)-2-(2,2-difluorocyclopropane-1-carbonyl)-2,6-diazaspiro[3.6]decan-6-yl)-8-fluoro-2-(((2R,7aS)-2-fluorotetrahydro-1H-pyrrolizin-7a(5H)-yl)methoxy)quinazolin-7-yl)-7-fluorobenzo[b]thiophene-3-carbonitrile] |
| < 5 µM | < 5 µM | CN(C)C(=O)N1CC2(CCCN(c3nc(OC[C@@]45CCCN4C[C@H](F)C5)nc4c(F)c(-c5ccc(F)c6sc(N)c(C#N)c56)c(Cl)cc34)C2)C1 [compound 119, 6-(7-(2-amino-3-cyano-7-fluorobenzo[b]thiophen-4-yl)-6-chloro-8-fluoro-2-(((2R,7aS)-2-fluorotetrahydro-1H-pyrrolizin-7a(5H)-yl)methoxy)quinazolin-4-yl)-N,N-dimethyl-2,6-diazaspiro[3.5]nonane-2-carboxamide] |
| < 5 µM | < 5 µM | Cn1nc(C(F)F)cc1C(=O)N1CC2(CCCCN(c3nc(OC[C@@]45CCCN4C[C@H](F)C5)nc4c(F)c(-c5ccc(F)c6sc(N)c(C#N)c56)c(Cl)cc34)C2)C1 [compound 343, 2-amino-4-(6-chloro-4-(2-(3-(difluoromethyl)-1-methyl-1H-pyrazole-5-carbonyl)-2,6-diazaspiro[3.6]decan-6-yl)-8-fluoro-2-(((2R,7aS)-2-fluorotetrahydro-1H-pyrrolizin-7a(5H)-yl)methoxy)quinazolin-7-yl)-7-fluorobenzo[b]thiophene-3-carbonitrile] |
| < 5 µM | < 5 µM | N#Cc1c(N)sc2c(F)ccc(-c3c(Cl)cc4c(N5CCCCC6(CN(C(=O)C[C@@H]7CCOC7)C6)C5)nc(OC[C@@]56CCCN5C[C@H](F)C6)nc4c3F)c12 [compound 259, 2-amino-4-(6-chloro-8-fluoro-2-(((2R,7aS)-2-fluorotetrahydro-1H-pyrrolizin-7a(5H)-yl)methoxy)-4-(2-(2-((S)-tetrahydrofuran-3-yl)acetyl)-2,6-diazaspiro[3.6]decan-6-yl)quinazolin-7-yl)-7-fluorobenzo[b]thiophene-3-carbonitrile] |
| < 5 µM | < 5 µM | N#Cc1c(N)sc2c(F)ccc(-c3c(Cl)cc4c(N5CCCCC6(C5)CN(S(=O)(=O)C5CC5)C6)nc(OC[C@@]56CCCN5C[C@H](F)C6)nc4c3F)c12 [compound 195, 2-amino-4-(6-chloro-4-(2-(cyclopropylsulfonyl)-2,6-diazaspiro[3.6]decan-6-yl)-8-fluoro-2-(((2R,7aS)-2-fluorotetrahydro-1H-pyrrolizin-7a(5H)-yl)methoxy)quinazolin-7-yl)-7-fluorobenzo[b]thiophene-3-carbonitrile] |
| < 5 µM | < 5 µM | Cn1nccc1C(=O)N1CC2(CCCCN(c3nc(OC[C@@]45CCCN4C[C@H](F)C5)nc4c(F)c(-c5ccc(F)c6sc(N)c(C#N)c56)c(Cl)cc34)C2)C1 [compound 134, 2-amino-4-(6-chloro-8-fluoro-2-(((2R,7aS)-2-fluorotetrahydro-1H-pyrrolizin-7a(5H)-yl)methoxy)-4-(2-(1-methyl-1H-pyrazole-5-carbonyl)-2,6-diazaspiro[3.6]decan-6-yl)quinazolin-7-yl)-7-fluorobenzo[b]thiophene-3-carbonitrile] |
| < 5 µM | < 5 µM | N#Cc1c(N)sc2c(F)ccc(-c3c(Cl)cc4c(N5CCCCC6(CN(C(=O)N7CC[C@H]7C#N)C6)C5)nc(OC[C@@]56CCCN5C[C@H](F)C6)nc4c3F)c12 [compound 224, (2S)-1-(6-(7-(2-amino-3-cyano-7-fluorobenzo[b]thiophen-4-yl)-6-chloro-8-fluoro-2-(((2R,7aS)-2-fluorotetrahydro-1H-pyrrolizin-7a(5H)-yl)methoxy)quinazolin-4-yl)-2,6-diazaspiro[3.6]decane-2-carbonyl)azetidine-2-carbonitrile] |
| < 5 µM | < 5 µM | C#Cc1c(F)ccc2cc(O)cc(-c3ncc4c(N5CCCC6(CN(C(=O)[C@@H]7C[C@H]7C#N)C6)C5)nc(OC[C@@]56CCCN5C[C@H](F)C6)nc4c3F)c12 [compound 164, (1R,2R)-2-(6-(7-(8-ethynyl-7-fluoro-3-hydroxynaphthalen-1-yl)-8-fluoro-2-(((2R,7aS)-2-fluorotetrahydro-1H-pyrrolizin-7a(5H)-yl)methoxy)pyrido [4,3-d]pyrimidin-4-yl)-2,6-diazaspiro[3.5]nonane-2-carbonyl)cyclopropane-1-carbonitrile] |

| SMILES | IC50 (KRASG12D) | IC50 (KRASwt) |
| --- | --- | --- |
| Nc1nc2c(-c3c(Cl)cc4c(N5CCC6(CC5)CN(S(=O)(=O)F)C6)nc(OC[C@@]56CCCN5C[C@H](F)C6)nc4c3F)ccc(F)c2s1 [compound 191, 7-(7-(2-amino-7-fluorobenzo[d]thiazol-4-yl)-6-chloro-8-fluoro-2-(((2R,7aS)-2-fluorotetrahydro-1H-pyrrolizin-7a(5H)-yl)methoxy)quinazolin-4-yl)-2,7-diazaspiro[3.5]nonane-2-sulfonyl fluoride] | ≥ 5 µM | < 5 µM |
